Reference: patent US20080268533A1, “Methods and Compositions Utilizing Myc and Gsk3Beta to Manipulate the Pluripotency of Embryonic Stem Cells” (University of Georgia Research Foundation, Inc., priority 2004, published 2008)

How the values were obtained:
[1] = tested on: hES BG01 cell lines transfected with c-myc^T58AER; format: cell-based
Method: To address this question in hESCs, clonal hES BG01 cell lines transfected with a human c-myc^T58AER gene fusion were generated, identical to that used in the previous mESC studies.
To establish a role for c-myc in HESC self-renewal, c-myc activity was enforced by the addition of 4OHT. This experiment was performed to determine whether c-myc could maintain normal HESC growth and morphology on Matrigel for a period of approximately 15 days (3 passages) in the absence of MEF-CM and bFGF, conditions where spontaneous differentiation would be anticipated. Uninduced (−40HT) cells overtly differentiated after approximately 5-6 days in a manner closely resembling untransfected hESCs when grown in the absence of MEF-CM and bFGF on Matrigel, as judged by changes in cell/colony morphology, increased cell spreading, and a reduction in cell packing density (FIGS. 11B and C and data not shown). The cell lines were also analyzed by immunoblot analysis, evaluating levels of c-myc^T58AER, c-myc, and cdk2 (FIG. 11A).
Alkaline phosphatase (AP) activity was used as a read-out to assess whether c-myc maintained hESCs were still pluripotent. 67% of colonies grown with 4OHT were AP positive in contrast to −4OHT cells where only 4% were positive after a 15 day period (FIG. 11D and data not shown). As in mouse ES cells, elevated c-myc activity caused significant cell death (data not shown).

mycER ES cells = test: AP activity of mycER ES cells with 4OHT; format: cell-based, mouse
Method: In the presence of 4OHT (mycER on), ES cells retained a uniform dome-shaped colony morphology (FIG. 1B), similar to that of LIF maintained cells (data not shown). In contrast, withdrawal of 4OHT promoted a distinct flattening of colonies with a less uniform appearance (FIG. 1C) that correlated with ES cells undergoing differentiation in the absence of LIF (data not shown). The ability of c-myc to promote ES cell self-renewal was confirmed in a LIF titration assay where mycER ES cells were grown in the presence or absence of 4OHT for 6 days in media containing LIF over a range of 0-1×10^3 units per ml and then assayed for AP activity. […] MycER cells were then grown in the presence or absence of 4OHT in the absence of LIF for up to 15 days and assayed for AP activity. […] Including low levels of LIF (7.5 units/ml), that by itself had only a small effect on maintaining AP levels over 15 days, appeared to further delay the loss of AP activity in mycER cells grown with 4OHT.

vector alone cell lines = test: Self-renewal of vector alone ES cell lines with 4OHT; format: cell-based, mouse; details: absence of LIF
Source text: Furthermore, authentic c-myc could maintain self-renewal in a similar manner to mycER fusions when expressed constitutively, independently of 4OHT (data not shown).

myc^Δ40-178ER cells = test: AP activity of dominant negative myc^Δ40-178ER cells with 4OHT; format: cell-based, mouse; details: +LIF, 4OHT (25 nM), 6-day period, 92% at start
Source text: While ES cell colonies with a typical domed-shape morphology could be maintained in the presence of LIF and in the absence of 4OHT over extended periods (>30 days), upon addition of 4OHT myc^Δ40-178ER cells changed morphology within several days, similar to that seen in spontaneously differentiating cells (data not shown). This coincided with down-regulation of specific transcripts associated with pluripotency such as Nanog and Oct4 together with the upregulation of early mesoderm (brachyury) and neuroectoderm (Sox1) transcripts (FIG. 10A). These trends were confirmed by AP activity assays in which the percentage of AP positive colonies declined from 92% to 45% over a 6-day period in the presence of 4OHT (FIG. 10B). […] This is consistent with the results showing that c-myc has a role in self-renewal and maintenance of pluripotency.

myc^T58AER cells = details: 4OHT (−LIF) versus LIF maintained cells, 14-day period
Method: For long-term maintenance, mycER and myc^T58AER mouse ES cells were grown in ES complete media supplemented with 4-hydroxytomoxifen (4OHT) (100 nM or 2-10 nM, respectively) and re-fed every second day. For differentiation of ES cells as embryoid bodies (EB), cells were trypsinized and replated on bacteriological dishes at 1.6×10^5 cells/cm^2 and grown in ESC media (−LIF) plus or minus 4OHT to allow for EB formation. Cells were re-fed every second day and expanded after 4 days of culture. mycER cells were passaged by limited trypsinization, avoiding generation of single cell suspensions. AP activity was assayed with Alkaline Phosphatase Substrate Kit I (Vector Laboratories) according to the manufacturers' instructions. LIF titration assays were performed over a range of 0 to 1×10^3 units ESGRO per ml in the presence or absence of 4OHT by plating cells in 24 well plates.

CC/C(=C(\c1ccc(O)cc1)c1ccc(OCCN(C)C)cc1)c1ccccc1 [4OHT, 4-hydroxytomoxifen]
highest concentration of drug that did not promote c-myc-dependent cell death (optimal) ([1]; 4OHT titration, c-myc^T58AER BG01 cell line): 1 to 5 nM
colonies AP positive ([1]; c-myc^T58AER hESCs grown with 4OHT, Matrigel, no MEF-CM and bFGF, 15 day period): 67%
AP activity (positive) (mycER ES cells; mycER cells grown in 4OHT, 6 days, entire LIF titration range 0-1×10^3 units per ml): > 90%
AP activity (mycER ES cells; mycER cells, 14 days, −LIF, in the presence of 4OHT): significantly reduced
self-renewal (vector alone cell lines): did not promote self-renewal
percentage of AP positive colonies (myc^Δ40-178ER cells): 45%
AP activity (myc^T58AER cells): comparable between LIF maintained cells and those grown in the presence of 4OHT
